The source of these data is publication PMC11061730, “Bacterial stigmasterol degradation involving radical flavin delta-24 desaturase and molybdenum-dependent C26 hydroxylase” (The Journal of Biological Chemistry, 2024).

The target of data set [1] is T1, Δ24-steroid desaturase (Δ24-SD) (Sterolibacterium denitrificans, UniProt A0A7Z7MWF7+A0A7Z7MWR3).
T1 construct: gene SDENCHOL_21263; alpha 63 kDa, beta 57 kDa; covalent FMN on a histidine of each subunit
The experiment in a line: LC-MS/MS of tryptic peptides; acid denaturation. It is filed as binding. To be noted: covalent; histidyl residue near N terminus in both subunits.

Substrate in data set [2]: CC[C@H](/C=C/[C@@H](C)[C@H]1CC[C@H]2[C@@H]3CCC4=CC(=O)C=C[C@]4(C)[C@H]3CC[C@]12C)C(C)C
Nature of the data set: UPLC assay of SDO to STO conversion, Michaelis-Menten fit. It counts as biochemical, Sterolibacterium denitrificans. To be noted: 1 mM DCPIP as electron acceptor, 50 mM Mops/KOH pH 7.0, 6% (w/v) HPCD, 30 °C, aerobic.

Usually Km stands for the concentration of substrate that gives half-maximal velocity.

For the molecule `Cc1cc2nc3c(=O)[nH]c(=O)nc-3n(C[C@H](O)[C@H](O)[C@H](O)COP(=O)(O)O)c2cc1C` [flavin mononucleotide], the “LC-MS/MS of tryptic peptides; acid denaturation” value in data set [1] was “contained flavin mononucleotide (FMN) modifications in both subunits”.

B1: Δ24-steroid desaturase (Δ24-SD) (Sterolibacterium denitrificans) (protein)
chain 1: MKNYDVIIIGGGINGLTTACYLQKAGLSVGVFEARGQCGAHCDTIELGRPGFLFNTHATWLVPAMSPPMADLELEKFNLELLGTDVIFAMPHADGTNTVQALDPGITMASIARHSEKDAALLGRIMEFGMMHMQEALEINGQMQYSRPTMALAERIAKLNDGLCKHLGLPIDGDDVMRMTGFELLELVYESEKVRLVPGTLGEYTGQWPLNRRVAPTVLGLCGMNPMAVHTAKGGSHALNHALVRCFVKHGGEIWTTCPVSKIIVENGRAVGIKLSEDALMPGEEIRAKNIVSNLTLTPTFTKLLGEEVIGPDWMRRIKYFNYDDPQLLGMYYAMKDAPVFKSAEYDPAIQRCWVGYFGPDSIDDVRNAQSQVMAGIMPTQTMGGWFNPTLADPSQAPAGHHVVSTWITVPPSPRKWGNKTLNGWSSWREGFGEALADTMDDLYEKMAPGFKDLIIERHINTPMDQENSNPSAVRGNMIGGSAIPEQAGENRPLPGVCVNGASRTFIPGLYLSNSIHPFGATHLASGYIAAVELAEDLGCRNQSWWISQPFEWFMGNLGNIPLNAGVADKWKV
chain 2: MSNETKFDAIVIGGGPNGLLAGAYLAKTGHKVVLFERRHETGGGLNTDEYFGFRFNLHAIYHLMAEKMPAWKDLDLANFGVRYLYPHVVAAFPFKDGSSLIFTRDVKETAESIAQFSKEDAAAYLAMWDEFQPMLDDYLIPMTYELPKPALDQLAEFGETEVGAKLAEISELSCLEVIDHYGFTHPRVRMALLSFPAMWGIHLADPLGFLYPLYLGRMLDAAFVKGGSHRLSSGMYRVFVKNGGTVIDENEVTRILVEDNRVTGVELQDGRRFMADAVVSTLNPVQTFKQLLPKDDVPYALHQAVDNWRWEERSFFGLHLGIDGGVRYNAQDPRVNEAMTVFIGLETEDELLDHLDRVDGKTTNGPEWLHIAQPTTFDKTMAPPNHSVIRAEAVVAYDPEWRARTPAFAAGCLDLIKQYATVDKVVQQRTVSPIDIEEKLTTMHRGSYKHGAYSTLQLGYLRPNDLCSCSETPIDGLFLGGASMYPGGMILGGPGYLAAQVTNDYLGEPVKK
notes: alpha 63 kDa, beta 57 kDa; covalent FMN on a histidine of each subunit
Take B1: the Km in data set [2] worked out at 51.5 ± 8.2 µM.
